From ChEMBL document CHEMBL4483862, “Open-source discovery of chemical leads for next-generation chemoprotective antimalarials” (2018) come the findings set out here.

The test relates to Plasmodium berghei. Nature of the test: Luciferase/luciferin-expressing antifolate-resistant parasites were used to infect a culture of HepG2 cells that were pre-incubated with compounds. Infected hepatocytes emit light due to the luciferase reaction. Assay results are presented as the percent inhibition of light emission compared to control. […]. It counts as functional. The following applies: sporozoite; for IC90: read-out: LUCIFERASE INFECTION ASSAY - IC90.

Where [1] appears, read: read-out: LUCIFERASE INFECTION ASSAY - IC50.

In general, IC50 refers to the point on the concentration scale where inhibition reaches its midpoint. The IC90 is the concentration at which the effect reaches the 90% level. Take `O=C(c1ccco1)N1CCc2nc(NCc3cccc(Oc4ccccc4)c3)ncc2C1`: the concentration for an effect of 90% (IC90) was determined as 2.99 µM. Moreover, the IC50 (HEPG2TOX_HILL_SLOPE 1.64, HEPG2TOX_R_SQUARED 0.989, PBLUC_HILL_SLOPE 13.2, PBLUC_R_SQUARED 0.473, read-out: LUCIFERASE INFECTION ASSAY - IC50) was 2.53 µM.
`CCN(Cc1ccc(Cl)s1)C(=O)c1ccc(NC(=O)c2ccco2)cc1`: the IC90 was > 10 µM. The IC50 (PBLUC_HILL_SLOPE 2.47, PBLUC_R_SQUARED 0.568, read-out: LUCIFERASE INFECTION ASSAY - IC50) came to 5.55 µM.
In the case of `COc1ccc(-c2noc(CN3CCN(C(=O)c4nn(-c5cccc(Cl)c5)nc4C)CC3)n2)cc1`, the IC90 is > 10 µM. Also, the concentration for half-maximal inhibition (IC50) (HEPG2TOX_HILL_SLOPE 14.4, HEPG2TOX_R_SQUARED 0.481, PBLUC_HILL_SLOPE 15.9, PBLUC_R_SQUARED 0.0941, read-out: LUCIFERASE INFECTION ASSAY - IC50) was found to be 9.11 µM.
Consider `C=CCN(C(=O)c1ccccc1Br)c1nc2ccccc2s1`, for which the IC90 is > 10 µM. Moreover, under setting [1], the IC50 is > 10 µM.
With `Cc1cc(C)c(C#N)c(SCc2nc(-c3ccsc3)no2)n1`, the IC90 came to 0.328 µM. For the same molecule, for the setting “FFLUC_HILL_SLOPE 0.467, FFLUC_R_SQUARED 0.935, PBLUC_HILL_SLOPE 1.22, PBLUC_R_SQUARED 0.907, read-out: LUCIFERASE INFECTION ASSAY - IC50”, the IC50 came out at 0.0542 µM.
With `CCOC(=O)/C=C/C(=O)OCC(=O)NC(c1ccccc1)c1ccccc1`, the IC90 was > 10 µM. Further, under setting [1], the IC50 was > 10 µM.
For the molecule `Cc1cc(N2CCN(c3cnn(-c4nc5ccccc5[nH]4)c(=O)c3Cl)CC2)nc(C(C)C)n1`, the IC90 came out at 7.33 µM. For the same molecule, where the note is “HEPG2TOX_HILL_SLOPE 0.0256, HEPG2TOX_R_SQUARED 0.0179, PBLUC_HILL_SLOPE 3.18, PBLUC_R_SQUARED 0.351, read-out: LUCIFERASE INFECTION ASSAY - IC50”, the IC50 came out at 3.68 µM.
`COC(=O)c1ccc2c(=O)nc(CN3CCc4sccc4C3C)[nH]c2c1` (centres undefined): the IC90 is > 10 µM. For the same molecule, the IC50 (PBLUC_HILL_SLOPE 11, PBLUC_R_SQUARED 0.235, read-out: LUCIFERASE INFECTION ASSAY - IC50) was > 10 µM.
On to `COc1ccc(-c2cnc3cnc(-c4ccccc4)cn23)cn1`, for which the IC90 is > 10.9 µM. Under “PBLUC_HILL_SLOPE 7.01, PBLUC_R_SQUARED 0.635, read-out: LUCIFERASE INFECTION ASSAY - IC50”, the IC50 is 9.42 µM.
On to `Cc1sc2nc(CSc3ccc([N+](=O)[O-])c(C(F)(F)F)c3)nc(O)c2c1C`, for which the IC90 came to 8.65 µM. In addition, the IC50 (HEPG2TOX_HILL_SLOPE 3.24, HEPG2TOX_R_SQUARED 0.988, PBLUC_HILL_SLOPE 5.99, PBLUC_R_SQUARED 0.334, read-out: LUCIFERASE INFECTION ASSAY - IC50) came out at 5.99 µM.
`O=C1OC(CC(=O)c2csc3ccccc23)c2ccccc21` (centres undefined): the IC90 came out at 8.63 µM. In addition, the IC50 under setting [1] was determined as 6.16 µM.
Turning to `N#CCCC(C#N)(c1ccc(F)cc1)c1cccc(F)c1C#N` (centres undefined), the IC90 was > 10.7 µM. The IC50 under setting [1] was > 10.7 µM.
As for `Cc1csc(NC(=O)Nc2cc(C(F)(F)F)cc(C(F)(F)F)c2)c1Cl`, the IC90 is 2.61 µM. Also, for the setting “HEPG2TOX_HILL_SLOPE 3.35, HEPG2TOX_R_SQUARED 0.976, PBLUC_HILL_SLOPE 39.1, PBLUC_R_SQUARED 0.116, read-out: LUCIFERASE INFECTION ASSAY - IC50”, the half-maximal inhibitory concentration (IC50) worked out at 2.47 µM.
In the case of `FC(F)(F)c1nc(N2CCN(c3ccncc3)CC2)c2ccccc2n1`, the IC90 is > 10 µM. In addition, for the setting “PBLUC_HILL_SLOPE 1.73, PBLUC_R_SQUARED 0.515, read-out: LUCIFERASE INFECTION ASSAY - IC50”, the IC50 was determined as 4.07 µM.
Turning to `O=C(Nc1ccccc1)N1CCC(C(=O)N2CCN(C(=O)c3ccccc3Cl)CC2)CC1`, the IC90 was > 10 µM. For the same molecule, the IC50 under setting [1] is > 10 µM.
Regarding `Cc1cc(C(=O)COC(=O)c2ccc3[nH]c4c(c3c2)CCCC4)c(C)n1Cc1ccccc1Cl`, the IC90 was found to be 4.61 µM. The IC50 (PBLUC_HILL_SLOPE 2.26, PBLUC_R_SQUARED 0.534, read-out: LUCIFERASE INFECTION ASSAY - IC50) is 1.74 µM.
As to `COC(=O)c1c(C(=O)OC)c2n(c1C)CCS2`, the IC90 is > 12.9 µM. The IC50 under setting [1] is > 12.9 µM.
`COc1ccc(-c2cc(CN3C(=O)N(C)C4(CCCCC4)C3=O)on2)cc1`: the IC90 is > 10 µM. Further, the concentration for half-maximal inhibition (IC50) (HEPG2TOX_HILL_SLOPE 0.667, HEPG2TOX_R_SQUARED 0.327, read-out: LUCIFERASE INFECTION ASSAY - IC50) was > 10 µM.
As for `Cc1cc(NCCN(C)C)n2nc(C(F)(F)F)c(-c3ccccc3)c2n1`, the IC90 was > 9.08 µM. For the same molecule, for the setting “PBLUC_HILL_SLOPE 2.75, PBLUC_R_SQUARED 0.0665, read-out: LUCIFERASE INFECTION ASSAY - IC50”, the IC50 was 5.68 µM.
For `CC(C)[C@H](NC(=O)c1ccccc1Cl)C(=O)OC(C(=O)Nc1cccc(C(F)(F)F)c1)c1ccccc1` (some centres undefined), the IC90 is > 10 µM. In addition, the IC50 (HEPG2TOX_HILL_SLOPE 0.157, HEPG2TOX_R_SQUARED 0.175, read-out: LUCIFERASE INFECTION ASSAY - IC50) was > 10 µM.
As for `COc1ccccc1-c1nc(-c2ccc(CCCNC(C)=O)cc2)cs1`, the IC90 was > 10 µM. Besides, the IC50 (PBLUC_HILL_SLOPE 1.19, PBLUC_R_SQUARED 0.431, read-out: LUCIFERASE INFECTION ASSAY - IC50) came to 5.36 µM.
As for `COc1ccc2cc(C3(C)NC(=O)N(Cc4nc(N)nc(Nc5ccc(F)cc5)n4)C3=O)ccc2c1` (centres undefined), the IC90 is > 10 µM. In addition, under setting [1], the IC50 was > 10 µM.
`N#CCCN(C(=O)COC(=O)c1ccc2c(c1)NC(=O)CS2)c1ccc2c(c1)OCCO2`: the IC90 is > 10 µM. Also, the IC50 under setting [1] was > 10 µM.
Take `c1csc(-c2cnc3sc(NCCc4ccncc4)nn23)c1`: the IC90 was > 10.1 µM. For the same molecule, the IC50 (FFLUC_HILL_SLOPE 0.665, FFLUC_R_SQUARED 0.0104, HEPG2TOX_HILL_SLOPE 4.1, HEPG2TOX_R_SQUARED 0.712, read-out: LUCIFERASE INFECTION ASSAY - IC50) was > 10.1 µM.
For `Cc1nn(Cc2ccccc2Cl)c(C)c1C(=O)Nc1nc(-c2ccccn2)cs1`, the IC90 turned out to be 6.51 µM. Moreover, the IC50 (PBLUC_HILL_SLOPE 5.44, PBLUC_R_SQUARED 0.0706, read-out: LUCIFERASE INFECTION ASSAY - IC50) was 4.34 µM.
With `CCC(C)(C)c1ccc(OCC(=O)Nc2ccc(Cl)c(N)c2)c(C(C)(C)CC)c1`, the IC90 turned out to be 3.07 µM. The IC50 (FFLUC_HILL_SLOPE 11.8, FFLUC_R_SQUARED 0.0263, PBLUC_HILL_SLOPE 15.2, PBLUC_R_SQUARED 0.794, read-out: LUCIFERASE INFECTION ASSAY - IC50) amounted to 2.66 µM.
For `Cc1nc2nc(-c3ccccc3)nn2c(N2CCCC2)c1Cc1ccccc1`, the concentration for an effect of 90% (IC90) was > 8.93 µM. For the same molecule, the IC50 under setting [1] came to 3.28 µM.
For the molecule `O=C(Nc1ccc(Cl)c(Cl)c1)OCCNC(=O)c1cccc(S(=O)(=O)N2CCCC2)c1`, the IC90 amounted to 9.3 µM. The IC50 (HEPG2TOX_HILL_SLOPE 9.3, HEPG2TOX_R_SQUARED 0.805, PBLUC_HILL_SLOPE 3.66, PBLUC_R_SQUARED 0.453, read-out: LUCIFERASE INFECTION ASSAY - IC50) was found to be 5.1 µM.
On to `FC(F)(F)c1nc2ccccc2n2c(-c3ccc(Cl)cc3)nnc12`, for which the IC90 was 3.27 µM. The IC50 (HEPG2TOX_HILL_SLOPE 11.7, HEPG2TOX_R_SQUARED 0.937, PBLUC_HILL_SLOPE 49.4, PBLUC_R_SQUARED 0.195, read-out: LUCIFERASE INFECTION ASSAY - IC50) is 3.13 µM.
For `Cc1cc(C(O)(C(F)(F)F)C(F)(F)F)c(C)n1-c1ccc(N(C)C)cc1`, the IC90 was > 10 µM. Further, where the note is “HEPG2TOX_HILL_SLOPE 5.45, HEPG2TOX_R_SQUARED 0.58, PBLUC_HILL_SLOPE 4.49, PBLUC_R_SQUARED 0.403, read-out: LUCIFERASE INFECTION ASSAY - IC50”, the 50% inhibitory concentration (IC50) was 7.53 µM.
As for `NC(=O)c1cccc(-c2cn3c(-c4cccc(O)c4)cnc3cn2)c1`, the IC90 is > 9.99 µM. Further, the IC50 (PBLUC_HILL_SLOPE 9.23, PBLUC_R_SQUARED 0.539, read-out: LUCIFERASE INFECTION ASSAY - IC50) was found to be 8.89 µM.
Regarding `N#Cc1ccc(-c2cnc3cnc(-c4ccc(CNc5ccccc5)cc4)cn23)cc1`, the IC90 is 6.67 µM. The IC50 (HEPG2TOX_HILL_SLOPE 0.183, HEPG2TOX_R_SQUARED 0.0935, PBLUC_HILL_SLOPE 1.81, PBLUC_R_SQUARED 0.744, read-out: LUCIFERASE INFECTION ASSAY - IC50) came out at 1.98 µM.
`O=S(=O)(c1ccccc1NCc1ccnc(N2CCCC2)c1)C(F)(F)F`: the IC90 is > 10 µM. The IC50 (HEPG2TOX_HILL_SLOPE 1.99, HEPG2TOX_R_SQUARED 0.873, PBLUC_HILL_SLOPE 3.99, PBLUC_R_SQUARED 0.0495, read-out: LUCIFERASE INFECTION ASSAY - IC50) was 6.48 µM.
With `CNc1ccc2ncc(-c3ccccc3)n2n1`, the IC90 stood at 13.6 µM. Also, the IC50 (HEPG2TOX_HILL_SLOPE 2.41, HEPG2TOX_R_SQUARED 0.973, PBLUC_HILL_SLOPE 2.77, PBLUC_R_SQUARED 0.442, read-out: LUCIFERASE INFECTION ASSAY - IC50) worked out at 6.15 µM.
Turning to `Cc1ccc(S(=O)(=O)Nc2cccc(C(=O)NN(C)c3ccccc3)c2)cc1F`, the IC90 is > 10 µM. Besides, under setting [1], the IC50 is > 10 µM.
With `CN(C)CCNCc1ccc(OC2CCCC2)cc1`, the IC90 is > 11 µM. Besides, under setting [1], the IC50 was > 11 µM.
On to `CCOc1cccc(-c2cn3c(-c4cccc(O)c4)cnc3cn2)c1`, for which the IC90 was 9.74 µM. For the setting “HEPG2TOX_HILL_SLOPE 1.42, HEPG2TOX_R_SQUARED 0.867, PBLUC_HILL_SLOPE 1.9, PBLUC_R_SQUARED 0.651, read-out: LUCIFERASE INFECTION ASSAY - IC50”, the IC50 is 3.05 µM.
